Where two headings read alike, the source gives them in different places. Where no end group is shown, it is not given here.
How the values were obtained:
[1] = kinetics of structural rearrangements by Circular Dichroism, secondary structure by BESTSEL and Dichroweb; type: physicochemical; conditions: sodium acetate pH 4
Method: The structural and conformational characterization of the RiLK1 peptide was assessed by investigating its secondary structure by Circular Dichroism (CD) spectroscopy in the absence and in the presence of Sodium Dodecyl Sulfate (SDS) at a concentration of 3 mM to mimic the condition of the bacterial cell membrane.
The CD assays were performed with a Jasco J-810 spectropolarimeter equipped with a thermostated cuvette holder. The samples were loaded into a 0.1 cm long quartz cuvette (Hellma Analytics) and the spectrum was analysed in the range from 190 nm to 250 nm at room temperature for each sample.
The CD spectra were acquired at a scan rate of 20 nm/min, and the recorded results represent an average of 5 scans.
The mean residue ellipticity ([θ], degrees cm^2 dmol^−1) was calculated using the following equation: […]
The secondary structure was calculated through the DICHROWEB site (Whitmore L and Wallace B A, 2004, Nucleic Acids Research 32:668-673, Whitmore L and Wallace B A, 2008, Biopolymers 89:392-400, Lobley et al, 2002, Bioinformatics 18:211-212), using three different algorithms (SELCON3, CONTIN-LL and CDSSTR) (Sreerema N and Woody R W, 1993, Analytical Biochemistry 287:252-260) and selecting the SMP180 protein as the comparison data set, which includes a high number of spectra of soluble and membrane proteins (Abdul-Gader A et al, 2011, Bioinformatics 27:1630-1636).
The secondary structure was also calculated through the BETSEL site (Micsonai A. et al, 2018, Nucleic Acids Res. 46: W315-W322; Micsonai A. et al, 2015, Proc Natl Acad Sci USA; 112: E3095-E3103).
The kinetics of the structural rearrangements of the RiLK1 peptide were assessed over 24 hours by Circular Dichroism (CD) spectroscopy and fluorescence spectroscopy.
0.1 g/L of RiLK1 peptide was dissolved in 10 mM sodium acetate buffer at pH 4, in the absence or presence of 3 mM SDS.

[2] = type: physicochemical; conditions: 50 μM in 1M NaCl, 25° C.
Method: The stability analysis of the RiLK1 peptide in the presence of a high concentration saline solution (1M NaCl) was carried out by reverse phase (RP) HPLC chromatography, performed on a μBondpack C18 column. 50 μM RiLK1 peptide was dissolved in 1 M NaCl and the samples were incubated at 25° C. and monitored for 9 days.

S. typhimurium = type: cell-based, Salmonella typhimurium; conditions: S. typhimurium
Method: The evaluation of the Minimum Bactericidal Concentration (MBC), i.e., the lowest concentration of antimicrobial agent capable of 99.9% inhibition of bacterial growth on plates, was carried out as described in Bílikova et al, (2015, Peptides 68:190-196). […] It should be noted that the peptide object of the present invention is more powerful and efficient than the peptide IDR-1018-K6 (described in patent application WO2019012158) against the pathogenic bacteria L. monocytogenes and S. typhimurium, with bactericidal concentration values 4-fold and 7-fold lower, respectively, compared to those shown by IDR-1018-K6.

[3] = tested on: Candida albicans (ATCC 14053); assay: activity against yeast, plate count, MFC; type: cell-based; conditions: C. albicans; 25 μM, 6 h
Method: The inhibitory activity of the RiLK1 peptide was determined against the yeast Candida albicans. A stock culture was prepared in which 10^5 CFUs of C. albicans were inoculated in 10 ml of buffered peptone water. A reference strain (ATCC 14053) was used for this species. The culture was incubated for 6 h at 37° C. with the RiLK1 peptide at 25 μM concentrations. At the same time, control samples were incubated without adding the peptide. 100 μl of the samples thus prepared were seeded on DG18 plates (Dichloran 18% Glycerol Agar-ISO 21527-2) and incubated at 25° C. for 7 days. All experimental conditions investigated used the plate count method to estimate the antimycotic activity of the peptide. Specifically, the numbers of colonies grown on agar plates seeded with the cultures in the absence or presence of the individual peptide dilutions were counted and compared. The standard deviations of the triplicate incubations of each plate were determined using statistical software. The evaluation of the Minimum Fungicidal Concentration (MFC), i.e., the lowest concentration of antifungal agent capable of 99.9% inhibition of fungal growth on plates, was carried out as described in Bílikova et al, (2015, Peptides 68:190-196).

RLKWVRIWRR-NH2 [RiLK1, RLKWVRIWRR]
Random (Bestsel) ([1]; t = 0 w/ 3 mM SDS): 41.3%
Random (DichroWeb CONTIN-LL) ([1]; t = 0 w/ 3 mM SDS): 40%
α-helix (Bestsel) ([1]; t = 0 w/ 3 mM SDS): 7.4%
α-helix (DichroWeb CONTIN-LL) ([1]; t = 0 w/ 3 mM SDS): 22%
β-sheet (Bestsel) ([1]; t = 0 w/ 3 mM SDS): 51.4%
β-sheet (DichroWeb CONTIN-LL) ([1]; t = 0 w/ 3 mM SDS): 38%
Random (Bestsel) ([1]; t = 5 min w/ 3 mM SDS): 42.2%
Random (DichroWeb CONTIN-LL) ([1]; t = 5 min w/ 3 mM SDS): 36%
α-helix (Bestsel) ([1]; t = 5 min w/ 3 mM SDS): 4.4%
α-helix (DichroWeb CONTIN-LL) ([1]; t = 5 min w/ 3 mM SDS): 22%
β-sheet (Bestsel) ([1]; t = 5 min w/ 3 mM SDS): 53.4%
β-sheet (DichroWeb CONTIN-LL) ([1]; t = 5 min w/ 3 mM SDS): 42%
Random (Bestsel) ([1]; t = 30 min w/ 3 mM SDS): 40.3%
Random (DichroWeb CONTIN-LL) ([1]; t = 30 min w/ 3 mM SDS): 37%
α-helix (Bestsel) ([1]; t = 30 min w/ 3 mM SDS): 11%
α-helix (DichroWeb CONTIN-LL) ([1]; t = 30 min w/ 3 mM SDS): 25%
β-sheet (Bestsel) ([1]; t = 30 min w/ 3 mM SDS): 48.7%
β-sheet (DichroWeb CONTIN-LL) ([1]; t = 30 min w/ 3 mM SDS): 38%
Random (DichroWeb CONTIN-LL) ([1]; t = 1 h (60 min) w/ 3 mM SDS): 39%
α-helix (DichroWeb CONTIN-LL) ([1]; t = 1 h (60 min) w/ 3 mM SDS): 23%
β-sheet (DichroWeb CONTIN-LL) ([1]; t = 1 h (60 min) w/ 3 mM SDS): 38%
Random (Bestsel) ([1]; t = 1 h w/ 3 mM SDS): 39.1%
α-helix (Bestsel) ([1]; t = 1 h w/ 3 mM SDS): 9.8%
β-sheet (Bestsel) ([1]; t = 1 h w/ 3 mM SDS): 51.1%
Random (DichroWeb CONTIN-LL) ([1]; t = 5 h (300 min) w/ 3 mM SDS): 38%
α-helix (DichroWeb CONTIN-LL) ([1]; t = 5 h (300 min) w/ 3 mM SDS): 19%
β-sheet (DichroWeb CONTIN-LL) ([1]; t = 5 h (300 min) w/ 3 mM SDS): 43%
Random (Bestsel) ([1]; t = 5 h w/ 3 mM SDS): 39.3%
α-helix (Bestsel) ([1]; t = 5 h w/ 3 mM SDS): 6.7%
β-sheet (Bestsel) ([1]; t = 5 h w/ 3 mM SDS): 54%
Random (DichroWeb CONTIN-LL) ([1]; t = 6 h (360 min) w/ 3 mM SDS): 37%
α-helix (DichroWeb CONTIN-LL) ([1]; t = 6 h (360 min) w/ 3 mM SDS): 19%
β-sheet (DichroWeb CONTIN-LL) ([1]; t = 6 h (360 min) w/ 3 mM SDS): 44%
Random (Bestsel) ([1]; t = 6 h w/ 3 mM SDS): 40.1%
α-helix (Bestsel) ([1]; t = 6 h w/ 3 mM SDS): 8%
β-sheet (Bestsel) ([1]; t = 6 h w/ 3 mM SDS): 52%
Random (Bestsel) ([1]; t = 24 h w/ 3 mM SDS): 38%
Random (DichroWeb CONTIN-LL) ([1]; t = 24 h w/ 3 mM SDS): 24%
α-helix (Bestsel) ([1]; t = 24 h w/ 3 mM SDS): 8.4%
α-helix (DichroWeb CONTIN-LL) ([1]; t = 24 h w/ 3 mM SDS): 29%
β-sheet (Bestsel) ([1]; t = 24 h w/ 3 mM SDS): 53.6%
β-sheet (DichroWeb CONTIN-LL) ([1]; t = 24 h w/ 3 mM SDS): 47%
Random (Bestsel) ([1]; w/o 3 mM SDS): 51.5%
Random (DichroWeb CONTIN-LL) ([1]; w/o 3 mM SDS): 61%
α-helix (Bestsel) ([1]; w/o 3 mM SDS): 1.2%
α-helix (DichroWeb CONTIN-LL) ([1]; w/o 3 mM SDS): 4%
β-sheet (Bestsel) ([1]; w/o 3 mM SDS): 47.3%
β-sheet (DichroWeb CONTIN-LL) ([1]; w/o 3 mM SDS): 35%
yield ([2]; 5 hours): +6%
yield ([2]; 24 hours): +6%
yield ([2]; 29 hours): +3%
yield ([2]; 48 hours): −1.5%^
yield ([2]; 53 hours): +4.3%^
yield ([2]; 6 days): −6.3%^
yield ([2]; 9 days): −8%
bactericidal concentration lower compared to IDR-1018-K6 (S. typhimurium): 7 fold
Drop Log CFU/ml [3]: 5 Log CFU/ml
post-treatment decrease in the fungal load [3]: 5 Log

Reference: patent US20260234187A1, “ANTIMICROBIAL PEPTIDES” (MATERIAS S.R.L., priority 2020, published 2026)
